Laboratory results: PubChem BioAssay (NCI)
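Method: 48-hour compound exposure of cells in 96-well plates, five concentrations, linear interpolation of endpoints. GI50 marks 50% less growth. Definition used: TGI = concentration required for complete inhibition of growth.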

Columns and labels:
Experiment in all cases: DTP human tumour cell line panel, 48 h
DU-145 prostate = tested on: DU-145 prostate
PC-3 prostate = tested on: PC-3 prostate
T-47D breast = tested on: T-47D breast
HS 578T breast = tested on: HS 578T breast
M19-MEL melanoma = tested on: M19-MEL melanoma
DLD-1 colon = tested on: DLD-1 colon
XF 498 CNS = tested on: XF 498 CNS
MDA-N = tested on: MDA-N

Compound | GI50 (DU-145 prostate) | TGI (DU-145 prostate) | GI50 (PC-3 prostate) | TGI (PC-3 prostate) | GI50 (T-47D breast) | TGI (T-47D breast) | GI50 (HS 578T breast) | TGI (HS 578T breast) | TGI (M19-MEL melanoma) | TGI (DLD-1 colon) | TGI (XF 498 CNS) | TGI (MDA-N) | GI50 (MDA-N)
CN(C)c1ccc(N=C(C#N)c2nc(N)nc(N3CCOCC3)n2)cc1 | 49.8 µM | > 100 µM | 44.1 µM | > 100 µM | > 100 µM | > 100 µM |  |  |  |  |  |  | 
COc1cc2c(cc1OCCCN1CCN(CCCOc3cc4c(cc3OC)C(=O)C3CCC[C@H]3C=N4)CC1)N=C[C@@H]1CCCC1C2=O (stereo partly drawn) | 2.41 µM | > 100 µM | 2.99 µM | > 77.1 µM | 15 µM | > 100 µM | 1.42 µM | 15.1 µM |  |  |  |  | 
Cn1cc(-c2csc(-c3cn(C)c4ncccc34)n2)c2ccccc21 | 0.436 µM | 23.5 µM | 0.397 µM | > 100 µM |  |  | 0.451 µM | 18.8 µM |  |  |  |  | 
Nc1nccc(C#Cc2cncnc2Nc2ccc(OCc3cccc(F)c3)c(Cl)c2)n1 | 4.37 µM | 7.81 µM | 4.5 µM | 9.63 µM | 3.1 µM | 8.03 µM | 6.32 µM | 20.5 µM |  |  |  |  | 
Cc1cc(N(CCC#N)CCC#N)ccc1N=Nc1ccc([N+](=O)[O-])cc1 |  |  |  |  |  |  |  |  | > 100 µM |  |  |  | 
COC(=O)C12C3C=CC(O3)C1C1C=CC2O1 (stereo not drawn) |  |  |  |  |  |  |  |  | > 100 µM | > 100 µM | > 100 µM |  | 
COc1cc(-c2[nH]ncc2CCCC(=O)Nc2ccccc2[N+](=O)[O-])ccc1O |  |  |  |  |  |  |  |  |  | > 100 µM | > 100 µM |  | 
C/C=C(\C)C(=O)O[C@@H]1C=CC(=O)O[C@H]1COC(=O)[C@H](C)O | 10.8 µM | 31.8 µM | 10.5 µM | 31.6 µM | 4.64 µM | 25.6 µM | 5.61 µM | 34.6 µM |  |  |  |  | 
C#CCSc1nnnn1-c1ccc(Br)c(C)c1 | 16.6 µM | 47.5 µM | 34.7 µM | > 100 µM | 21 µM | > 100 µM | 2.86 µM | 26.9 µM |  |  |  |  | 
COc1ccc(Br)c(CCCCC(=O)O)c1 |  |  |  |  |  |  |  |  | > 100 µM | > 100 µM | > 100 µM |  | 
O=[N+]([O-])c1ccc(N=Nc2c(O)[nH]c3ccc(Br)cc23)c([N+](=O)[O-])c1 |  |  |  |  |  |  |  |  | 9.91 µM | 20.4 µM |  |  | 
O=S(=O)(Nc1ccc2ccc3cccc4ccc1c2c34)c1ccccc1 |  | > 100 µM |  | > 100 µM |  | > 100 µM |  | > 100 µM |  |  |  |  | 
CCOC(=O)C1=C(O)CSC1=Nc1ccc(N=C2SCC(O)=C2C(=O)OCC)cc1 |  |  |  |  |  |  |  |  | 61.2 µM | 50.4 µM | 42 µM |  | 
C/C(=N\NC(=S)Nc1ccccc1)c1ccccn1 | 0.746 µM | 3.03 µM | < 0.0171 µM | 5.73 µM | 0.0168 µM | 6.41 µM | 0.0857 µM | 38.4 µM |  |  |  |  | 
C=C(CNCCc1ccc(O)cc1)[C@@H]1CC[C@]2(CO)CC[C@]3(C)[C@H](CC[C@@H]4[C@@]5(C)CCC(NCCO)C(C)(C)[C@@H]5CC[C@]43C)[C@@H]12 (stereo partly drawn) | 1.6 µM | 3.04 µM | 1.6 µM | 3.29 µM | 1.79 µM | 3.96 µM | 1.69 µM | 3.85 µM |  |  |  |  | 
Cn1cccc1C1CC(=O)N(CCC[Se]C#N)C1=O (stereo not drawn) | 1.81 µM | 3.78 µM | 2.19 µM | 5.63 µM | 2.78 µM | 12.8 µM | 2.44 µM | 7.33 µM |  |  |  |  | 

Compound | GI50 (DU-145 prostate) | TGI (DU-145 prostate) | GI50 (PC-3 prostate) | TGI (PC-3 prostate) | GI50 (T-47D breast) | TGI (T-47D breast) | GI50 (HS 578T breast) | TGI (HS 578T breast) | TGI (M19-MEL melanoma) | TGI (DLD-1 colon) | TGI (XF 498 CNS) | TGI (MDA-N) | GI50 (MDA-N)
Cn1cc(-c2nonc2-c2cn(C)c3ccc(Br)cc23)c2ccccc21 | 4.09 µM | > 100 µM | 4.06 µM | > 100 µM |  |  |  |  |  |  |  |  | 
CC1(C)OCC(C2OC(On3nnc4ccc(Cl)cc43)C3OC(C)(C)OC23)O1 (stereo not drawn) |  | > 100 µM |  | > 100 µM |  | > 100 µM |  | > 100 µM |  |  |  | > 100 µM | 
COc1cccc(C2C3=C(COC3=O)N(CCO)c3cc4c(cc32)CCC4)c1 (stereo not drawn) | 0.0884 µM | 0.321 µM | 0.0577 µM | > 50 µM | 0.0832 µM | 36.6 µM | 0.0285 µM | 32.4 µM |  |  |  |  | 
COC(=O)Oc1nn(C(=O)OC)c(=O)c2ccccc12 (tested in a mixture with another compound) |  | > 100 µM |  | > 100 µM |  | > 100 µM |  | > 100 µM |  |  |  | > 100 µM | 
COc1cc(C2c3cc4c(cc3[C@@H](OCCN)[C@H]3COC(=O)C23)OCO4)cc(OC)c1O (stereo partly drawn) |  |  |  |  |  |  |  |  | 2.14 µM | 6.76 µM | 0.489 µM |  | 
Fc1cccc(C=NC23CC4CC(CC(C4)C2)C3)c1 |  |  |  |  |  |  |  |  | > 100 µM | > 100 µM | > 100 µM |  | 
NC(=NCc1ccccc1)N/N=C\c1ccnc2ccccc12 |  | 32.3 µM |  | 35.9 µM |  | 5.87 µM |  | 49.4 µM |  |  |  | 26.6 µM | 
COc1ccc(C2=NN(c3ccc(S(N)(=O)=O)cc3)C(c3ccc(Cl)cc3)C2)c(O)c1 (stereo not drawn) | 5.88 µM | 20.7 µM | 2.78 µM | 14.6 µM | 2.4 µM | 7.81 µM | 3.93 µM | 19.5 µM |  |  |  |  | 
COC(=O)CC(CC(=O)C(=O)OC)C(=O)OC (stereo not drawn) |  |  |  |  |  |  |  |  |  | > 100 µM |  |  | 
CCCCCNC(=O)C1C(=O)N(CCCCC)C(=O)/C1=N\N (stereo not drawn) |  |  |  |  |  |  |  |  | > 100 µM | > 100 µM |  |  | 
COC(=O)[C@@]12C3=NO[C@]1(C(=O)OC)C(O[Si](C)(C)C(C)(C)C)C1OC(C)(C)OC1[C@@H]2[C@@H](OCc1ccccc1)CC3 (stereo partly drawn) |  |  |  |  |  |  |  |  | > 100 µM | > 100 µM |  |  | 
CNS(=O)(=O)NN(C)S(=O)(=O)c1ccc(C)cc1 |  |  |  |  |  |  |  |  | > 100 µM | > 100 µM |  |  | 
O=C1c2cccnc2-c2nc(-c3ccccc3)cc3c2c1nc1ccccc13 | 13.6 µM | 30.2 µM | 3.42 µM | 73.2 µM | 5.35 µM | 44.3 µM | 16.6 µM | 42.9 µM |  |  |  | 3.46 µM | 1.74 µM
CC[C@]12C=CCN3CC[C@]4(C(=C(C(=O)OC)C1)Nc1ccccc14)[C@@H]32 | 3.81 µM | 14.5 µM | 5.36 µM | 22.8 µM | 2.82 µM | 15.9 µM | 2.99 µM | 17.2 µM |  |  |  |  | 
COc1cc(-c2cn(-c3ccc(Cl)cc3)c(=O)n2-c2ccccc2)cc(OC)c1OC | > 100 µM | > 100 µM | 69.9 µM | > 100 µM | 21.7 µM | > 100 µM | > 50.5 µM | 97.1 µM |  |  |  |  | 
COc1ccc2c(c1)C(=O)/C(=C/c1ccc(OCC(=O)c3ccc(Cl)cc3)cc1)O2 | 16.4 µM | 29.9 µM | 14.7 µM | 69.1 µM | 10.5 µM | 35.7 µM | 22.1 µM | 84.6 µM |  |  |  |  | 
